Read-outs that look alike come from different tables or passages of the source.
Legend:
Format in all cases: binding
[1] = biological target: T1, HeLa cell extract proteins (Homo sapiens, UniProt Q8WWC4)
T1 construct: endogenous in cells; host or cells: HeLa cell extract
T1 sequence (Q8WWC4 97-291): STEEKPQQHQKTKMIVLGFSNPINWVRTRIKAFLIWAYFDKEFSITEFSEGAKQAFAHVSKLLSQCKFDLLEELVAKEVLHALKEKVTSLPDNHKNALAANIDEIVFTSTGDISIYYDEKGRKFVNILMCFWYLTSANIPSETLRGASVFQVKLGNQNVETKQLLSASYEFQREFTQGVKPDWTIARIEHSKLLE

[2] = biological target: T2, HeLa cell extract proteins (Homo sapiens, UniProt Q92945)
T2 construct: endogenous in cells; host or cells: HeLa cell extract
T2 sequence (Q92945 1-711): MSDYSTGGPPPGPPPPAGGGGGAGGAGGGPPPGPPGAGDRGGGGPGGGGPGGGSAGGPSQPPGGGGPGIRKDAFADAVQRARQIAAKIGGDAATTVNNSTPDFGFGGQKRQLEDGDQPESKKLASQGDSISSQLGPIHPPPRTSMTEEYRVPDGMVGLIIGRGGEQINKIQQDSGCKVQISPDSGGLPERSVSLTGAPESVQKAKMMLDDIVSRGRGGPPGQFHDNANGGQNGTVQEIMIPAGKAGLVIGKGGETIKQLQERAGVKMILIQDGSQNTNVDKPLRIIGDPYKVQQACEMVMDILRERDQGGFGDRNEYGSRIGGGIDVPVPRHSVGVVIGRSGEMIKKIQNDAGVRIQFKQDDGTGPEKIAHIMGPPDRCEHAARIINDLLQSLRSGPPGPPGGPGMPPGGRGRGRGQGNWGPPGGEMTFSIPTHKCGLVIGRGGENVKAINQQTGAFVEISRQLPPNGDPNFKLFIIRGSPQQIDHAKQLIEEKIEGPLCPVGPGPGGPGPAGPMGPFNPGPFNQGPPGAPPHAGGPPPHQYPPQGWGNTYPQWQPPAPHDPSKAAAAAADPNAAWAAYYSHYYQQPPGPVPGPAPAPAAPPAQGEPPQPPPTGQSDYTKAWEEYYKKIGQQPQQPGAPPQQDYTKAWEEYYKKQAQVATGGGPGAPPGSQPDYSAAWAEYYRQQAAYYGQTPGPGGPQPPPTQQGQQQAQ

[3] = biological target: T3, HeLa cell extract proteins (Homo sapiens, UniProt Q99460)
T3 construct: endogenous in cells; host or cells: HeLa cell extract
T3 sequence (Q99460 whole entry): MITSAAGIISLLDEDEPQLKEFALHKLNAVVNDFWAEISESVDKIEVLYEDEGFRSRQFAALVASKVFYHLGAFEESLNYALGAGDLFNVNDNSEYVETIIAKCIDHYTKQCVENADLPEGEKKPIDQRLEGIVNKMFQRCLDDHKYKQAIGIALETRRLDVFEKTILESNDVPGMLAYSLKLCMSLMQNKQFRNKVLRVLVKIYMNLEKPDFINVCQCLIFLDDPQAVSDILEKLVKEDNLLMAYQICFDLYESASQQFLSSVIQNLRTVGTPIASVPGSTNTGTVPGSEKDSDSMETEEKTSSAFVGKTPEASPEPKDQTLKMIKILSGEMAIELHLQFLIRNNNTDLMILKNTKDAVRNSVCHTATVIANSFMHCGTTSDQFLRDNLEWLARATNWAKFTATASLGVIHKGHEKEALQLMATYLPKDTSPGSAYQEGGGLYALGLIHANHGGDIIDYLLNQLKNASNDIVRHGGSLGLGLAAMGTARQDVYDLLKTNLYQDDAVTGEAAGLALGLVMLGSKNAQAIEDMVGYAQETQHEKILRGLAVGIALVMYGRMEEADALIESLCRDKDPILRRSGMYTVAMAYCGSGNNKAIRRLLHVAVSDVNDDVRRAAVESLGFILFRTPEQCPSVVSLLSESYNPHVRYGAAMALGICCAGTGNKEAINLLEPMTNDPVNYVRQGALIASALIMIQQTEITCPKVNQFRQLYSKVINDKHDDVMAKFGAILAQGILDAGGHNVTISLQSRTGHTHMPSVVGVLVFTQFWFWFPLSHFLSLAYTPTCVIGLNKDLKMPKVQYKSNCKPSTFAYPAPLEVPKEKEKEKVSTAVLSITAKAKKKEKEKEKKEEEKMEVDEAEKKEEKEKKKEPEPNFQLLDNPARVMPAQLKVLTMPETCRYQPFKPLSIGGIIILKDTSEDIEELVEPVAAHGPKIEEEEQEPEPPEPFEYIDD

[4] = biological target: T4, HeLa cell extract proteins (Homo sapiens, UniProt Q6PJT7)
T4 construct: endogenous in cells; host or cells: HeLa cell extract
T4 sequence (Q6PJT7 1-736): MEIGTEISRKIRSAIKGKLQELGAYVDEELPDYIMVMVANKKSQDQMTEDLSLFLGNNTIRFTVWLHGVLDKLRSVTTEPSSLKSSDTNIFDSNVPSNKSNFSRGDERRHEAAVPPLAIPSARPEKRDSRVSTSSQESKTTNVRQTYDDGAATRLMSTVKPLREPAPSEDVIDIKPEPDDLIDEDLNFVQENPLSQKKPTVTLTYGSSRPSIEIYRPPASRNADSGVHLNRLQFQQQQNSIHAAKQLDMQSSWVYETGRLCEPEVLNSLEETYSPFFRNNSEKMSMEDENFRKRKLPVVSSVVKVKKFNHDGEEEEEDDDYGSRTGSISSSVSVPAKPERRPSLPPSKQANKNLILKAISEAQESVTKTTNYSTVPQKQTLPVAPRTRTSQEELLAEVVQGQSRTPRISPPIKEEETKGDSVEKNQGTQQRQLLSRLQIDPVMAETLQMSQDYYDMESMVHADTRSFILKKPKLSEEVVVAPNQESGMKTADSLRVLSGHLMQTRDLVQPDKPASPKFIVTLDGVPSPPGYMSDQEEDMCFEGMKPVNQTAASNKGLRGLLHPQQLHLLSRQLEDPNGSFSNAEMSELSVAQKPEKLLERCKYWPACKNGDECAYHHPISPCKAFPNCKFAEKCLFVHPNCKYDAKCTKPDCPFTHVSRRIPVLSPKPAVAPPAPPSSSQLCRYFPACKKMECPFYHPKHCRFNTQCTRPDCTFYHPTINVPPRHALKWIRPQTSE

[5] = biological target: T5, HeLa cell extract proteins (Homo sapiens, UniProt P24752)
T5 construct: endogenous in cells; host or cells: HeLa cell extract
T5 sequence (P24752 34-427): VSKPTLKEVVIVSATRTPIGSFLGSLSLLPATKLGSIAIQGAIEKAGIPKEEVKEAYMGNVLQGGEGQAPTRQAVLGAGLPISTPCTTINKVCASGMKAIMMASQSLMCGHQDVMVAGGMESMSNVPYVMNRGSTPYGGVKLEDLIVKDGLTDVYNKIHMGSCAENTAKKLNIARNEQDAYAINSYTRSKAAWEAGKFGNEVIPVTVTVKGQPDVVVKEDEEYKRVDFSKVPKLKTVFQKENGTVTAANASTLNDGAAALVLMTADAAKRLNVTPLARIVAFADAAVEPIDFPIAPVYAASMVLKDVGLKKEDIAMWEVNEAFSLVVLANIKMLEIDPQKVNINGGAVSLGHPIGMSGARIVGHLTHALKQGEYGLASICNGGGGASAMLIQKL

[6] = biological target: T6, HeLa cell extract proteins (Homo sapiens, UniProt P15311)
T6 construct: endogenous in cells; host or cells: HeLa cell extract
T6 sequence (P15311 whole entry): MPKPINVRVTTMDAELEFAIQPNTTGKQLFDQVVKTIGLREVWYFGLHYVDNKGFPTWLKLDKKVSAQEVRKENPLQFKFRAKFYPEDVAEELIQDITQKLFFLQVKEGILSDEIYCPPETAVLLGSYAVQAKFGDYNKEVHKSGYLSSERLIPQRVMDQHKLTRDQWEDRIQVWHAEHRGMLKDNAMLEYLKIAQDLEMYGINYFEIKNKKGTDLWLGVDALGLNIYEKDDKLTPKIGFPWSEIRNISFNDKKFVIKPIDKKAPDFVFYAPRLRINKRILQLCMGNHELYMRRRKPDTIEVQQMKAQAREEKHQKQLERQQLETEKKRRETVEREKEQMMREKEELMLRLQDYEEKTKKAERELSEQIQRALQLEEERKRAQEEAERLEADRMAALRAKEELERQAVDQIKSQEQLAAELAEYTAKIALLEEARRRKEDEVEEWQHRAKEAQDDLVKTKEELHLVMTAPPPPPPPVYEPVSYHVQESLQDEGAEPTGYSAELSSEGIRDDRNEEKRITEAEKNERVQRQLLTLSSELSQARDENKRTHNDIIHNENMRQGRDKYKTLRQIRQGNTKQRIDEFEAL

[7] = biological target: T7, HeLa cell extract proteins (Homo sapiens, UniProt P12277)
T7 construct: endogenous in cells; host or cells: HeLa cell extract
T7 sequence (P12277 whole entry): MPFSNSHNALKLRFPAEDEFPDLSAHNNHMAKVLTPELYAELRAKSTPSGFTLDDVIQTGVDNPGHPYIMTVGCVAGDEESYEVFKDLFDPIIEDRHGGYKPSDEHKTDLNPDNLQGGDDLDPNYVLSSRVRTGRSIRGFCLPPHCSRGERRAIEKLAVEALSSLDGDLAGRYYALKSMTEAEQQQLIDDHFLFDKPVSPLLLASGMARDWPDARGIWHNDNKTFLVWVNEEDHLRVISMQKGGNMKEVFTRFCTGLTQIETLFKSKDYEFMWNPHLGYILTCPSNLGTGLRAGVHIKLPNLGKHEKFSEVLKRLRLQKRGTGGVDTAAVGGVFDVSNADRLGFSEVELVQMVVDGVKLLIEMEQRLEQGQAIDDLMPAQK

[8] = biological target: T8, HeLa cell extract proteins (Homo sapiens, UniProt Q8IYS1)
T8 construct: endogenous in cells; host or cells: HeLa cell extract
T8 sequence (Q8IYS1 1-436): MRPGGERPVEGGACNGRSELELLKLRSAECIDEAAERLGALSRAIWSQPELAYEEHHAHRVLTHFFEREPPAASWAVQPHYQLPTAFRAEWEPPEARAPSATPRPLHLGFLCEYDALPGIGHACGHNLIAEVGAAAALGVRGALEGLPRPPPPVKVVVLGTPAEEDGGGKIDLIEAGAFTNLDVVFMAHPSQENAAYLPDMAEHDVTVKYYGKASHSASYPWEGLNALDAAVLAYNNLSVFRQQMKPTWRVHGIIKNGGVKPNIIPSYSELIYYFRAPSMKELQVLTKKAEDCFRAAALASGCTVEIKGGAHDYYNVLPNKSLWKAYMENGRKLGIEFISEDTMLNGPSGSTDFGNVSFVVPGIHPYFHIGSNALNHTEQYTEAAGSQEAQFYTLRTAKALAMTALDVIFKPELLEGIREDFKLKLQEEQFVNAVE

[9] = biological target: T9, HeLa cell extract proteins (Homo sapiens, UniProt O00408)
T9 construct: endogenous in cells; host or cells: HeLa cell extract
T9 sequence (O00408 whole entry): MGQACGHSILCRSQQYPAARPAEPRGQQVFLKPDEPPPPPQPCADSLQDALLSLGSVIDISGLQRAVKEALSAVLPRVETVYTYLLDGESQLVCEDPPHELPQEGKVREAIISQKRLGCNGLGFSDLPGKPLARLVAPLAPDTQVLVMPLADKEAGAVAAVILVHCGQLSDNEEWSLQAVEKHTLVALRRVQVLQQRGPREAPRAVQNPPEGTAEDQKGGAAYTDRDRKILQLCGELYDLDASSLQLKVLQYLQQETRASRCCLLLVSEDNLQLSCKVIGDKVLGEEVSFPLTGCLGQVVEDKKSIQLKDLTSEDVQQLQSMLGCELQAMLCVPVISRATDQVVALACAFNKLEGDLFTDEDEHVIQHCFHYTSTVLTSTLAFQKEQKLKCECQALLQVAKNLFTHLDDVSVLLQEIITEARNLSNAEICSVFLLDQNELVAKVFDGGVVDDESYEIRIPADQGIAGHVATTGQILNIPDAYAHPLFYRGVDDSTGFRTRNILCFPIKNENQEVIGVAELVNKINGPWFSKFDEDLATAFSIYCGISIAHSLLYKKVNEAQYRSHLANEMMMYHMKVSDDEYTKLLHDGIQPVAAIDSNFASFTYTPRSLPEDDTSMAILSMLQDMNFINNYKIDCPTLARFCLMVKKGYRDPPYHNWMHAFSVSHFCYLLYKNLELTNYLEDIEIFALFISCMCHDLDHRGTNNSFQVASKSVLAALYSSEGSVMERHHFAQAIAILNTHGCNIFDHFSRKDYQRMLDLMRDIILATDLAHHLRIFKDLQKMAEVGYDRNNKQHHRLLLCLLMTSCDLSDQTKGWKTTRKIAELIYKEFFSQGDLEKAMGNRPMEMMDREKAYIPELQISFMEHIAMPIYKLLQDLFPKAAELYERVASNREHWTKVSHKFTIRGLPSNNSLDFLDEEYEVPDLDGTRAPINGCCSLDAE

[10] = HeLa, protein CKB (CREATINE KINASE B-TYPE.)

Row | Structure (SMILES) | fold changes relative to vehicle control ([1]; protein C2ORF47, HeLa) | fold changes relative to vehicle control ([2]; HeLa, protein KHSRP) | fold changes relative to vehicle control ([3]; protein PSMD1, HeLa) | fold changes relative to vehicle control ([4]; HeLa, captured protein ZC3H14) | fold changes relative to vehicle control ([5]; protein ACAT1, HeLa) | fold changes relative to vehicle control ([6]; HeLa, protein EZR) | fold changes relative to vehicle control ([7]; HeLa, protein CKB) | fold changes relative to vehicle control ([8]; HeLa, protein PM20D2) | fold changes relative to vehicle control ([9]; protein PDE2A, HeLa) | fold changes relative to vehicle control ([1]; HeLa, protein C2ORF47) | fold changes relative to vehicle control ([2]; captured protein KHSRP, HeLa) | fold changes relative to vehicle control ([4]; captured protein ZC3H14, HeLa) | fold changes relative to vehicle control ([6]; protein EZR, HeLa) | fold changes relative to vehicle control [7, 10] | fold changes relative to vehicle control ([8]; captured protein PM20D2, HeLa) | other results
1 | Nc1nc2c(c(=O)[nH]1)N(C=O)C(CNc1ccc(C(=O)N[C@@H](CCC(=O)O)C(=O)O)cc1)CN2 (stereo partly drawn) [LEU, leucovorin] | 0.93 | 0.9 | 0.88 | 1 | 1 | 0.94 | 1.01 | 0.9 | 0.73 | – | – | – | – | – | – | –
2 | Nc1nc2[nH]cc(CCc3ccc(C(=O)N[C@@H](CCC(=O)O)C(=O)O)cc3)c2c(=O)[nH]1 [PTX, pemetrexed] | – | – | – | – | – | – | – | – | – | – | – | – | – | – | – | fold changes relative to vehicle control [1]: 0.92; fold changes relative to vehicle control [2]: 0.97; fold changes relative to vehicle control [3]: 0.99; fold changes relative to vehicle control [4]: 0.95; fold changes relative to vehicle control [5]: 0.9; fold changes relative to vehicle control [6]: 1; fold changes relative to vehicle control [7]: 1.11; fold changes relative to vehicle control [8]: 1; fold changes relative to vehicle control [9]: 0.71
3 | CCCCCCOc1ccc(Cc2cnc(N)nc2N)cc1 [compound 1] | – | – | 1.3 | – | 1.22 | – | – | – | 0.61 | 1.1 | 0.74 | 0.83 | 1.23 | 1.55 fold | 1.09 | –
4 | CCCCCCOc1cccc(Cc2cnc(N)nc2N)c1 [compound 2] | – | – | 1.78 | – | 1.75 | – | – | – | 1.7 | 1.06 | 0.96 | 0.94 | 1.87 | 2.55 fold | 0.9 | –
5 | Nc1nc2cccc(-c3ccccc3)c2n1Cc1ccc(Cl)c(Cl)c1 [compound 3] | – | – | 1.14 | – | 0.84 | – | – | – | 0.64 | 1.11 | 0.84 | 0.96 | 0.8 | 0.92 fold | 1.1 | –
6 | NCCOCCOCC(=O)Nc1nc2ncc(CNc3ccc(C(=O)NC(CCC(=O)O)C(=O)O)cc3)nc2c(=O)[nH]1 (stereo not drawn) [compound 6] | 0.99 | 0.96 | 1.08 | 0.99 | 1.31 | 1.16 | 1.23 | 1.05 | 0.79 | – | – | – | – | – | – | –
7 | NCCCNc1ccc(C(=O)NC(CCC(=O)O)C(=O)O)cc1 (stereo not drawn) [compound 7] | 1.06 | 0.95 | 1.16 | 1.04 | 0.87 | 0.92 | 0.93 | 0.89 | 0.7 | – | – | – | – | – | – | –
